Reference: patent US6143790A, “L-N^6 -(1-iminoethyl)lysine derivatives useful as nitric oxide synthase inhibitors” (G.D. Searle & Co., priority 1996, dated 2000)
Structures can show the parent of a compound that is named as a salt.

Columns and labels:
iNOS = test: % inhibition of iNOS at 100 μM; type: biochemical
Protocol: (§1) Citrulline Assay for Nitric Oxide Synthase Nitric oxide synthase activity was measured by monitoring the conversion of L-[2,3-3H]-arginine to L-[2,3-3H]-citrulline (1,2). Human inducible NOS (hiNOS), human endothelial constitutive NOS (hecNOS) and human neuronal constitutive NOS (hncNOS) were each cloned from RNA extracted from human tissue. The recombinant enzymes were expressed in insect cells using a baculovirus vector. Enzyme activity was isolated from cell extracts and partially purified by DEAE-Sepharose chromatography (2). Mouse inducible NOS (miNOS) was prepared from an extract of LPS-treated mouse RAW 264.7 cells and rat brain constitutive NOS (rcNOS) was prepared from an extract of rat cerebellum. Both preparations were partially purified by DEAE-Sepharose chromatography (2). Enzyme and inhibitors were added to give a volume of 50 μL in 50 mM Tris (pH 7.6) and the reaction initiated by the addition of 50 μL of a solution containing 50 mM Tris (pH 7.6), 2.0 mg/mL bovine serum albumin, 2.0 mM DTT, 4.0 mM CaCl2, 20 μM FAD, 100 μM tetrahydrobiopterin, 0.4-2.0 mM NADPH and 60 μM L-arginine containing 0.9 μCi of L-[2,3-3H]-arginine. For constitutive NOS, calmodulin was included at a final concentration of 40-100 nM. Following incubation at 37° C. for 15 minutes, the reaction was terminated by addition of 300 μL cold buffer containing 10 mM EGTA, 100 mM HEPES (pH5.5) and 1.0 mM L-citrulline. The [3H]-citrulline was separated by chromatography on Dowex 50W X-8 cation exchange resin and radioactivity quantified with a liquid scintillation counter.

[1] = molecular target: T1, Human inducible NOS (hiNOS) (Homo sapiens, UniProt P35228); test: Citrulline Assay for Nitric Oxide Synthase, hiNOS; type: biochemical
T1 construct: made in house; host or cells: insect cells, baculovirus vector
Protocol: (§2) Citrulline Assay for Nitric Oxide Synthase
as §1, with “Nitric” for “Citrulline Assay for Nitric Oxide Synthase Nitric”

RAW cell i-NOS = molecular target: T2, RAW cell i-NOS (Mus musculus, UniProt P29477); test: Raw Cell Nitrite Assay; type: cell-based; conditions: RAW 264.7 cells, LPS induced, L-arginine 30 μM
T2 construct: grown overnight (17 h) in the presence of LPS to induce NOS; endogenous in cells; host or cells: RAW 264.7 cells, LPS-induced
Protocol: RAW 264.7 cells are plated to confluency on a 96-well tissue culture plate grown overnight (17 h) in the presence of LPS to induce NOS. A row of 3-6 wells are left untreated and served as controls for subtraction of nonspecific background. The media is removed from each well and the cells are washed twice with Krebs-Ringers-Hepes (25 mM, pH 7.4) with 2 mg/ml glucose. The cells are then placed on ice and incubated with 50 μL of buffer containing L-arginine (30 μM) +/-inhibitors for 1 h. The assay is initiated by warming the plate to 37° C. in a water bath for 1 h. Production of nitrite by intracellular iNOS is linear with time. To terminate the cellular assay, the plate of cells is placed on ice and the nitrite-containing buffer removed and analyzed for nitrite using a previously published fluorescent determination for nitrite. All values are the average of triplicate wells and are compared to a background-subtracted induced set of cells (100% value).

[2] = molecular target: T3, human neuronal constitutive NOS (hncNOS) (Homo sapiens, UniProt P29475); test: Citrulline Assay for Nitric Oxide Synthase, hncNOS; type: biochemical
T3 construct: made in house; host or cells: insect cells, baculovirus vector
Protocol: as §2
as §1, with “Nitric” for “Citrulline Assay for Nitric Oxide Synthase Nitric”

[3] = molecular target: T4, human endothelial constitutive NOS (hecNOS) (Homo sapiens, UniProt P29474); test: Citrulline Assay for Nitric Oxide Synthase, hecNOS; type: biochemical
T4 construct: made in house; host or cells: insect cells, baculovirus vector
Protocol: as §2
as §1, with “Nitric” for “Citrulline Assay for Nitric Oxide Synthase Nitric”

[4] = test system: constitutive and the inducible NO synthase; conditions: constitutive vs inducible NO synthase; cited from earlier work

CC(=N)NCCCC[C@H](N)C(O)CO (single isomer, unassigned) [Example 3A, N-(5S-amino-6,7-dihydroxyheptyl)ethanimidamide, dihydrochloride]
% inhibiton iNOS at 100 μM (iNOS): 53.4%

CC(=N)NCCCC[C@H](N)C(O)CO (single isomer, unassigned) [Example 3B, N-(5S-amino-6,7-dihydroxyheptyl)ethanimidamide, dihydrochloride]
IC50 [1]: 12.3 µM
IC50 (RAW cell i-NOS): 80 µM
IC50 [2]: 150 µM

CC(=N)NCCCC[C@H](N)C(O)c1ccccc1 (single isomer, unassigned) [Example 11A, α-[1-amino-5-[(1-iminoethyl)amino]pentyl]benzenemethanol hydrochloride dihydrate]
% inhibiton iNOS at 100 μM (symbol) (iNOS): * (At 100 μM dose, response was not seen.)

CC(=N)NCCCC[C@H](N)C(O)c1ccccc1 (single isomer, unassigned) [Example 11B, α-[1-amino-5-[(1-iminoethyl)amino]pentyl]benzenemethanol hydrochloride dihydrate]
% inhibiton iNOS at 100 μM (iNOS): 4.6%

CC(=N)NCCCC[C@H](N)C(C)(O)CO (single isomer, unassigned) [Example 15A, N-(5S-amino-6,7-dihydroxy-6-methylheptyl)ethanimidamide, hydrochloride dihydrate]
IC50 [3]: 2350 µM
IC50 [1]: 9.3 µM
IC50 (RAW cell i-NOS): 57.3 µM
IC50 [2]: 99.6 µM

CC(=N)NCCCC[C@H](N)C(C)(O)CO (single isomer, unassigned) [Example 15B, N-(5S-amino-6,7-dihydroxy-6-methylheptyl)ethanimidamide, hydrochloride dihydrate]
IC50 [3]: 6590 µM
IC50 [1]: 187 µM
IC50 [2]: 441 µM

CC(=N)NCCCC[C@H](N)C(O)C(C)O (single isomer, unassigned) [Example 16B, N-(5S-amino-6,7-dihydroxyoctyl) ethanimidamide, dihydrochloride hydrate]
IC50 [3]: 5430 µM
IC50 [1]: 76.8 µM
IC50 (RAW cell i-NOS): > 100 µM
IC50 [2]: 670 µM

CC(=N)NCCCC[C@H](N)C(C)O (single isomer, unassigned) [Example 40A, N-(5S-amino-6-hydroxyheptyl)ethanimidamide, dihydrochloride dihydrate]
% inhibiton iNOS at 100 μM (iNOS): 32.6%

CC(=N)NCCCC[C@H](N)CC(=O)O [Example 1, 3S-amino-7-[(1-iminoethyl)amino]heptanoic Acid]
IC50 [3]: 1990 µM
IC50 [1]: 61 µM
IC50 (RAW cell i-NOS): 300 µM
IC50 [2]: 898 µM

CCOC(=O)C[C@@H](N)CCCCNC(C)=N [Example 1d, Ethyl 3S-amino-7-[(1-iminoethyl)amino]heptanoate]
% inhibiton iNOS at 100 μM (iNOS): 35%

CC(=N)NCCC[C@H](N)CC(=O)O [Example 2, 3S-amino-6-[(1-iminoethyl)amino]hexanoic Acid]
% inhibiton iNOS at 100 μM (symbol) (iNOS): * (At 100 μM dose, response was not seen.)

CCOC(=O)C[C@@H](N)CCCNC(C)=N [Example 2d]
% inhibiton iNOS at 100 μM (iNOS): 5%

CC(=N)NCCCC(C)N (stereo not drawn) [Example 4, Ni-(1-iminoethyl)-1,4-pentanediamine, dihydrochloride]
% inhibiton iNOS at 100 μM (iNOS): 33%

CCC(N)CCCCNC(C)=N (stereo not drawn) [Example 5, N1-(1-iminoethyl) -1,5-heptanediamine]
% inhibiton iNOS at 100 μM (iNOS): 27%

CC(=N)Nc1ccc(C(N)CC(=O)O)cc1.Cl.Cl.O (stereo not drawn) [Example 10, β-amino-4-[(1-iminoethyl)amino]benzenepropanoic acid, dihydrochloride hydrate]
% inhibiton iNOS at 100 μM (iNOS): 3.4%

COC(=O)CC(N)c1ccc(NC(C)=N)cc1 (stereo not drawn) [Example 10f]
% inhibiton iNOS at 100 μM (iNOS): 7.7%

CC(=N)NCCCC[C@H](N)C(=O)c1cccs1 [Example 12, N-[5S-amino-6-oxo-6-(2-thienyl)hexyl]ethanimidamide, hydrate]
% inhibiton iNOS at 100 μM (symbol) (iNOS): * (At 100 μM dose, response was not seen.)

CC(=N)NCCCC[C@H](N)C(C)=O [Example 14, N-(5S-amino-6-oxoheptyl)ethanimidamide, dihydrochloride]
% inhibiton iNOS at 100 μM (symbol) (iNOS): * (At 100 μM dose, response was not seen.)

CC(=N)NCCCC[C@H](N)C(COC(C)=O)OC(C)=O (stereo partly drawn) [Example 18, N-(6,7-diacetyloxy-5S-aminoheptyl)ethanimidamide, hydrochloride monohydrate]
% inhibiton iNOS at 100 μM (iNOS): 7%

CC(=N)NCCCC[C@H](N)C(O)COC(C)=O (stereo partly drawn) [Example 19, N-(5S-amino-6-hydroxy-7-acetoxyheptyl)ethanimidamide, hydrochloride monohydrate]
% inhibiton iNOS at 100 μM (iNOS): 54%

CC(=N)NCCCC[C@H](N)C(C)O (stereo partly drawn) [Example 40B, N-(5S-amino-6-hydroxyheptyl)ethanimidamide, dihydrochloride dihydrate]
% inhibiton iNOS at 100 μM (iNOS): 14.5%

CC(=N)NCCCC[C@H](N)c1nnn[nH]1 [Example 41, N-[5S-amino-5-(1H-tetrazol-5-yl)pentyl]ethanimidamide, dihydrochloride]
% inhibiton iNOS at 100 μM (iNOS): 28.5%

CC(=N)NCCCC[C@H](N)CO [Example 48, N-(5S-amino-6-hydroxyhexyl)ethanimidamide]
% inhibiton iNOS at 100 μM (iNOS): 40.6%

CC(=N)NCCCC[C@H](N)c1ncc(C)o1 [Example 49, N-[5-amino-5-(5-methyloxazol-2-yl)pentyl]ethanimidamide, hydrochloride hydrate]
% inhibiton iNOS at 100 μM (iNOS): 19.4%

CC(=N)NCCCC[C@H](N)C(=O)NO [Example 50, 2S-amino-N-hydroxy-6-[(1-iminoethyl)amino]hexanamide, hydrochloride]
% inhibiton iNOS at 100 μM (iNOS): 40.6%

CNC(=N)NCCC[C@H](N)C(=O)O [L-NMMA, L-N-monomethyl-arginine]
selectivity as NO synthase inhibitor [4]: non-selective
